Data from patent US20220008452A1, “COMPOSITIONS AND METHODS FOR TREATING OR PREVENTING NASH, NAFLD, DIABETES, ATHEROSCLEROSIS, AND/OR OBESITY” (YALE UNIVERSITY, priority 2018, published 2022).

How the values were obtained:
miR335 = miR335 inhibitor given to mice on 60% high fat diet; type: in vivo; details: 60% HFD, 5 mg/kg IP, vs control inhibitor
Method: FIG. 14 is a schematic outlining time course of an experiment comparing animals administered miR335 inhibitors to control, on a high fat diet. The mice were injected 5 mg/kg of miR335 inhibitor or its control twice a week for 4 weeks. Nonproprietary in vivo grade miRNA inhibitor purchased from Qiagen/Exiqon. Sequence: […] (SEQ ID NO:3; 100% complementary to […]).
The mice are subject to 6 weeks of 60% HFD. 5 mg/kg of miR335 inhibitor and its control was given to mice by IP injection. 2 weeks after, HFD was started.
The mir335−/− mice and Apoe−/− mice have been previously described. All animals were maintained on a C57BL/6 background. For mice fed a high-fat diet, mice were administered a 60% fat diet (TD-06414, Envigo) or 40% fat diet with 1.25% added cholesterol (DI2108C, Research Diet) for designated times before tissue and serum were collected.
Frozen 10-μm cryosections from the liver were washed with distilled water for 10 min. After the washing, sections were put into Eosin solution for 2 min. After rinsing with distilled water, sections were put into Hematoxylin solution for 5 min. After washing with distilled water for 15 min, the slides were mounted with DPX mountant (Sigma). Sections were imaged using bright-field microscopy.
Plasma was assessed for alanine aminotransferase (ALT) (Pointe Scientific) following the manufacturer's instructions. Briefly, 20 μl of each plasma sample was added in the 200 μl of the reagent and incubated at 37° C. After 1 min incubation, samples were put on the plate and the plate was read at 340 nm with a microplate reader (BioTek Synergy 2). The ALT values were calculated according to the manufacturer's instructions.

CHFR = test: Relative mRNA and protein expression of CHFR (quantitative PCR, western blot)
miR-335-5p = test: Relative expression of miR-335-5p by RT-PCR in endothelial cells; type: cell-based, human
Method: (§1) Human umbilical vein endothelial cells (HUVECs) were cultured in EBM-2 (Lonza) and THP-1 monocytes (ATCC) were grown in RPM. Human coronary microvascular endothelial cells (HCMECs) (Lonza) were cultured in EBM (Lonza). For experimental treatments, HUVECs and HMVECs (passages 3 to 8) were grown to 70-90% confluence. Simvastatin (Sigma) was activated to its active form as previously described. Atorvastatin (Sigma) was solubilized in DMSO and used at 10 μM concentration. Transient transfection of plasmids was performed with Fugene HD (Promega) according to the manufacturer's instructions. For small interfering RNA (Invitrogen) and miR-335-5p mimic (Dharmacon) transfections, each oligonucleotide formulation and respective controls (control siRNA: 12935112 (Invitrogen), miRNA mimic control: 0010000105 (Dharmacon), 50 nM) were complexed with Lipofectamine RNAiMAX (Invitrogen) according to the manufacturer's instructions.
(§2) Total RNA was extracted with the miRNeasy Mini kit (Qiagen). […] RT-PCR was performed with TaqMan probes for genes and miRNAs (ThermoFisher), or SYBR green assays for genes (Bio-Rad). All miRNA data were normalized to the internal control small RNAs U6 for human samples. For the mRNA samples, ribosomal 18S was used as an internal control. Individual RT-PCRs were performed on a […] (Bio-Rad) according to the manufacturer's instructions.

MEST = test: Relative mRNA expression of MEST by RT-PCR in endothelial cells; type: cell-based, human
Method: as §1, §2

Compound	elevation in serum ALT associated with high fat diet (miR335)	fat accumulation in the liver (miR335)	liver histology (miR335)	liver weight (miR335)	weight gain associated with a high fat diet (miR335)	CHFR mRNA and protein expression (CHFR; HCMECs)	CHFR mRNA and protein expression (CHFR; HUVECs)	miR-335 expression (miR-335-5p; HCMECs)	miR-335 expression (miR-335-5p; HUVECs)	MEST expression (MEST; HCMECs)	MEST expression (MEST; HUVECs)
miR335 inhibitor: Nonproprietary in vivo grade miRNA inhibitor purchased from Qiagen/Exiqon; sequence ACATTTTTCGTTATTGCTCTTGA (SEQ ID NO:3), complementary to miR-335-5p (in vivo grade miRNA inhibitor from Exiqon, chemistry not given here, further chemistry not given here)	attenuated	attenuated	preserved	decreased	suppressed	–	–	–	–	–	–
CC(C)c1c(C(=O)Nc2ccccc2)c(-c2ccccc2)c(-c2ccc(F)cc2)n1CC[C@@H](O)C[C@@H](O)CC(=O)O [atorvastatin]	–	–	–	–	–	significantly upregulated	significantly upregulated	significant decrease	significant decrease	significantly downregulated	significantly downregulated
